Measurements: patent US8846671B2, “Heterocyclic alkynyl benzene compounds and medical compositions and uses thereof” (Guangzhou Institute of Biomedicine and Health, Chinese …, priority 2010, dated 2014)
Like-named read-outs stand apart in the source and are kept apart here.

How the values were obtained:
[1] = tested on: K562R cells (imatinib-resistant cell line); assay: tumor cell proliferation, MTT or CCK8 assay, 72 h incubation; assay type: cell-based; conditions: Homo sapiens, K-562R, imatinib-resistant K562R, read-out: IC50 on tumor cell proliferation, K562R cells
[2] = Pharmacokinetics and bioavailability in rats; assay type: in vivo; conditions: SD rats; corresponding pharmaceutical acceptable salt forms
Description: Pharmacokinetics and bioavailability in rats. […] The blood samples were collected at the proper time points after administration, add heparin-anticoagulant, and the supernatants of the blood samples were collected (3000 rpm, 10 min) and stored at -20° C. for HPLC-MS analysis. After protein-precipitation procedure with acetonitrile, supernatants were collected after 3000 rpm, 10 min for analysis with HPLC-MS. The data were analyzed with software DAS2.0 to separately acquire the parameters of compartment models and non-compartment models. The bioavailability was calculated according to AUC data.

[3] = target: BAF3-T315I cells (Ba/F3 cell line stably expressing BCR/ABL T315I) (Homo sapiens, UniProt P00519, T315I, cells depend on it); assay: tumor cell proliferation, MTT or CCK8 assay, 72 h incubation; assay type: cell-based, mice
Description: (§1) The heterocyclic alkynyl benzene compounds at different concentrations (1×10^−10˜1×10^−5M) were incubated for 72 hours individually applied to 6 cell lines K562 (human CML cell line), MOLT-4 (human ALL cell line), U937 (human CML cell line), MEG-01 (human CML cell line), L78 (human lung cancer cell line), Ba/F3-T315I (mice Pro-B cells transformed with Bcr-AblT315I and STI57′-resistant cell line). After incubation for 72 hrs, cell proliferation was then determined by MTT assay or CCK8 assay, and 4 hr incubation is further conducted, the absorbance at 570 nm (CCK8, 450 nm, 650 nm) was measured using enzyme Microplate Reader.

[4] = tested on: K562 (human chronic myelogenous leukemia cell line); assay: as above; assay type: cell-based; conditions: K562, 72 h, read-out: IC50 on tumor cell proliferation, K562
Description: as §1, with “Reader. […] Based on the inhibition potency of the heterocyclic alkynyl benzene compounds on the cell proliferation, IC50 values were calculated and summarized in the Table 1 and Table 2 (The compounds used were synthesized by Examples 1-40, and the compounds are marked with Drug No. series in Table 1).” for “Reader.”

[5] = tested on: MOLT-4 (Human acute lymphoblastic leukemia cell line); assay: as above; assay type: cell-based; conditions: MOLT-4, 72 h, read-out: IC50 on tumor cell proliferation, MOLT-4
Description: as §1, with “Reader. […] Based on the inhibition potency of the heterocyclic alkynyl benzene compounds on the cell proliferation, IC50 values were calculated and summarized in the Table 1 and Table 2 (The compounds used were synthesized by Examples 1-40, and the compounds are marked with Drug No. series in Table 1).” for “Reader.”

U937 Cell line = assay: as above; assay type: cell-based; conditions: Homo sapiens, U-937; 72 h, MTT or CCK8; no unit in cell; read-out: IC50 on tumor cell proliferation, U937
Description: as §1, with “Reader. […] Based on the inhibition potency of the heterocyclic alkynyl benzene compounds on the cell proliferation, IC50 values were calculated and summarized in the Table 1 and Table 2 (The compounds used were synthesized by Examples 1-40, and the compounds are marked with Drug No. series in Table 1).” for “Reader.”

[6] = Ba/F3 expressing BCR/ABL T315I, 72 h, Table 1; read-out: IC50 on tumor cell proliferation, BAF3-T315I cells

Row | IC50 [1] | pharmacokinetics parameters, overall judgement [2] | GI50 [3, 6] | IC50 ([4]; MTT or CCK8, nM) | IC50 ([5]; MTT or CCK8, nM) | GI50 ([3]; read-out: IC50 on tumor cell proliferation, BAF3-T315I cells; Ba/F3 expressing BCR/ABL T315I, 72 h, Table 1) | IC50 ([4]; MTT or CCK8, no unit in cell) | IC50 ([5]; MTT or CCK8, no unit in cell) | IC50 (U937 Cell line) | SMILES
1 | 32 nM | – | 245 nM | – | – | – | 65.7 nM | 955 nM | 715 nM | Cc1ccc(C(=O)Nc2ccc(CN3CC[C@H](N(C)C)C3)c(C(F)(F)F)c2)cc1C#Cc1cnc2ccnn2c1 [D940, (S)—N-(4-((3-(dimethylamino)pyrrolidin-1-yl)methyl)-3-(trifluoromethyl)phenyl)-4-methyl-3-(2-(pyrazolo[1,5-a]pyrimidin-6-yl)ethynyl)benzamide]
2 | 410 nM | – | 102 nM | – | – | – | 2.34 nM | 340 nM | 696 nM | Cc1cn(-c2cc(NC(=O)c3ccc(C)c(C#Cc4cnc5ccnn5c4)c3)cc(C(C)(C)C)c2)cn1 [D941, N-(3-tert-butyl-5-(4-methyl-1H-imidazol-1-yl)phenyl)-4-methyl-3-(2-(pyrazolo[1,5-a]pyrimidin-6-yl)ethynyl)benzamide]
3 | 44 nM | – | 102 nM | – | – | – | 3.54 nM | 674 nM | 1300 nM | Cc1ccc(C(=O)Nc2ccc(CN3CCN(CCO)CC3)c(C(F)(F)F)c2)cc1C#Cc1cnc2ccnn2c1 [D942, N-(4-((4-(2-hydroxyethyl)piperazin-1-yl)methyl)-3-(trifluoromethyl)phenyl)-4-methyl-3-(2-(pyrazolo[1,5-a]pyrimidin-6-yl)ethynyl)benzamide]
4 | 320 nM | – | 618 nM | – | – | – | 8.3 nM | 1630 nM | 2120 nM | Cc1ccc(C(=O)Nc2ccc(CN3CC[C@@H](N(C)C)C3)c(C(F)(F)F)c2)cc1C#Cc1cnc2ccnn2c1 [D943]
5 | 75.1 nM | – | 243 nM | – | – | – | 0.997 nM | – | > 1000 nM | Cc1cn(-c2cc(F)cc(NC(=O)c3ccc(C)c(C#Cc4cnc5[nH]ncc5c4)c3)c2)cn1 [D963, 3-(2-(1H-pyrazolo[3,4-b]pyridin-5-yl)ethynyl)-N-(3-fluoro-5-(4-methyl-1H-imidazol-1-yl)phenyl)-4-methylbenzamide]
6 | 32 nM | – | 24.2 nM | – | – | – | 0.938 nM | – | > 1000 nM | Cc1cn(-c2cc(Cl)cc(NC(=O)c3ccc(C)c(C#Cc4cnc5[nH]ncc5c4)c3)c2)cn1 [D964, 3-(2-(1H-pyrazolo[3,4-b]pyridin-5-yl)ethynyl)-N-(3-chloro-5-(4-methyl-1H-imidazol-1-yl)phenyl)-4-methylbenzamide]
7 | 5.7 nM | – | 6.87 nM | – | – | – | 0.588 nM | – | 817 nM | Cc1ccc(C(=O)Nc2ccc(CN3CC[C@@H](N(C)C)C3)c(C(F)(F)F)c2)cc1C#Cc1cnc2[nH]ncc2c1 [D965, (R)-3-(2-(1H-pyrazolo[3,4-b]pyridin-5-yl)ethynyl)-N-(4-((3-(dimethylamino)pyrrolidin-1-yl)methyl)-3-(trifluoromethyl)phenyl)-4-methylbenzamide]
8 | – | – | 13.8 nM | – | – | – | 0.324 nM | – | 18.5 nM | Cc1ccc(C(=O)Nc2ccc(CN3CC[C@H](N(C)C)C3)c(C(F)(F)F)c2)cc1C#Cc1cnc2[nH]ncc2c1 [D966, (S)-3-(2-(1H-pyrazolo[3,4-b]pyridin-5-yl)ethynyl)-N-(4-((3-(dimethylamino)pyrrolidin-1-yl)methyl)-3-(trifluoromethyl)phenyl)-4-methylbenzamide]
9 | 207 nM | – | 798 nM | – | – | – | 0.314 nM | – | 5830 nM | Cc1cn(-c2cccc(NC(=O)c3ccc(C)c(C#Cc4cnc5[nH]ncc5c4)c3)c2)cn1 [D967, 3-(2-(1H-pyrazolo[3,4-b]pyridin-5-yl)ethynyl)-4-methyl-N-(3-(4-methyl-1H-imidazol-1-yl)phenyl)benzamide]
10 | 32 nM | – | 6.36 nM | – | – | – | 0.701 nM | – | > 1000 nM | Cc1cn(-c2cc(NC(=O)c3ccc(C)c(C#Cc4cnc5[nH]ncc5c4)c3)cc(C(C)(C)C)c2)cn1 [D968, 3-(2-(1H-pyrazolo[3,4-b]pyridin-5-yl)ethynyl)-N-(3-tert-butyl-5-(4-methyl-1H-imidazol-1-yl)phenyl)-4-methylbenzamide]

Further lines, the molecule ahead of its results:

Row | SMILES | IC50 [1] | pharmacokinetics parameters, overall judgement [2] | GI50 [3, 6] | IC50 ([4]; MTT or CCK8, nM) | IC50 ([5]; MTT or CCK8, nM) | GI50 ([3]; read-out: IC50 on tumor cell proliferation, BAF3-T315I cells; Ba/F3 expressing BCR/ABL T315I, 72 h, Table 1) | IC50 ([4]; MTT or CCK8, no unit in cell) | IC50 ([5]; MTT or CCK8, no unit in cell) | IC50 (U937 Cell line)
11 | Cc1cn(-c2cc(NC(=O)c3ccc(C)c(C#Cc4cnc5ccnn5c4)c3)cc(C(F)(F)F)c2)cn1 [D822, 4-methyl-N-(3-(4-methyl-1H-imidazol-1-yl)-5-(trifluoromethyl)phenyl)-3-(2-(pyrazolo[1,5-a]pyrimidin-6-yl)ethynyl)benzamide] | 580 nM | adequate pharmacokinetics parameters | 1100 nM | 4.34 nM | > 100 nM | – | – | – | –
12 | Cc1ccc(C(=O)Nc2ccc(CN3CCN(C)CC3)c(C(F)(F)F)c2)cc1C#Cc1cnc2[nH]ncc2c1 [D824, 3-(2-(1H-pyrazolo[3,4-b]pyridin-5-yl)ethynyl)-4-methyl-N-(4-((4-methylpiperazin-1-yl)methyl)-3-(trifluoromethyl)phenyl)benzamide] | 14 nM | adequate pharmacokinetics parameters | – | 0.494 nM | > 100 nM | 1.65 nM | – | – | –
13 | Cc1ccc(C(=O)Nc2ccc(CN3CCN(C)CC3)c(C(F)(F)F)c2)cc1C#Cc1cnc(NC2CC2)nc1 [D825, 3-(2-(2-(cyclopropylamino)pyrimidin-5-yl)ethynyl)-4-methyl-N-(4-((4-methylpiperazin-1-yl)methyl)-3-(trifluoromethyl)phenyl)benzamide] | 50 nM | adequate pharmacokinetics parameters | 15.7 nM | 1.88 nM | 92.9 nM | – | – | – | –
14 | Cc1ccc(C(=O)Nc2cc(-n3ccnc3)cc(C(F)(F)F)c2)cc1C#Cc1cnc2[nH]ncc2c1 [D831, N-(3-(1H-imidazol-1-yl)-5-(trifluoromethyl)phenyl)-3-(2-(1H-pyrazolo[3,4-b]pyridin-5-yl)ethynyl)-4-methylbenzamide] | 54 nM | adequate pharmacokinetics parameters | 36.8 nM | 0.466 nM | 7130 nM | – | – | – | –
15 | Cc1cn(-c2cc(NC(=O)c3ccc(C)c(C#Cc4cnc5[nH]ccc5c4)c3)cc(C(F)(F)F)c2)cn1 [D832, 3-(2-(1H-pyrrolo[2,3-b]pyridin-5-yl)ethynyl)-4-methyl-N-(3-(4-methyl-1H-imidazol-1-yl)-5-(trifluoromethyl)phenyl)benzamide] | 200 nM | – | 21.8 nM | 7.27 nM | > 100 nM | – | – | – | –
16 | Cc1cn(-c2cc(NC(=O)c3ccc(C)c(C#Cc4cnc(NC[C@H](O)CO)nc4)c3)cc(C(F)(F)F)c2)cn1 [D834, 3-(2-(2-((S)-2,3-dihydroxypropylamino)pyrimidin-5-yl)ethynyl)-4-methyl-N-(3-(4-methyl-1H-imidazol-1-yl)-5-(trifluoromethyl)phenyl)benzamide] | 190 nM | – | 215 nM | 8.7 nM | > 100 nM | – | – | – | –
17 | Cc1ncn(-c2cc(NC(=O)c3ccc(C)c(C#Cc4cnc5[nH]ncc5c4)c3)cc(C(F)(F)F)c2)n1 [D835, 3-(2-(1H-pyrazolo[3,4-b]pyridin-5-yl)ethynyl)-4-methyl-N-(3-(3-methyl-1H-1,2,4-triazol-1-yl)-5-(trifluoromethyl)phenyl)benzamide] | 26 nM | – | 8.58 nM | 0.402 nM | > 100 nM | – | – | – | –
18 | Cc1ccc(C(=O)Nc2ccc(CN3CCOCC3)c(C(F)(F)F)c2)cc1C#Cc1cnc2ccnn2c1 [D931, 4-methyl-N-(4-(morpholinomethyl)-3-(trifluoromethyl)phenyl)-3-(2-(pyrazolo[1,5-a]pyrimidin-6-yl)ethynyl)benzamide] | 510 nM | – | 2750 nM | – | – | – | > 10000 nM | 7430 nM | 4600 nM
